Experiments:
[1] = DSC dissolution-endpoint method (Method I): solubility of a crystalline substance in a polymer; conditions: for solubility in PVP: by extrapolation
Method: In a typical procedure, 0.5-1 g of solute/polymer powder was milled at 10 Hz. Each cycle of milling was 2 min, followed by a 2 min cool-down. The cycle was repeated to achieve a desired milling time (16-60 min).
Standard and modulated differential scanning calorimetry (DSC) was conducted in hermetic aluminium pans using a TA Instruments DSC Q1000. 5-10 mg of the sample was packed into the pans. A pin hole was made in the lid to allow the escape of moisture. Standard DSC was performed at heating rates from 0.1 to 3° C./min. Modulated DSC was used to observe the glass transition of the amorphous phase at a heating rate of 2° C./min with the temperature modulating at ±0.5° C. every 60 second.
To further minimize the effect of slow dissolution on the measurement of equilibrium solubility, we measured Tend at several heating rates (FIG. 3) and obtained the Tend at zero heating rate by extrapolation (FIG. 4).
The larger the difference (Tend−Tg), the lower the viscosity of the solution in which D-mannitol completed its dissolution. […] For such systems, Tend changed rapidly and non-linearly with the heating rate, making the extrapolation to zero heating rate less certain. […] Despite this limitation the method enabled us to get sufficiently close to Tg to estimate the solubility of D-mannitol in PVP at Tg: by extrapolation. […] At 95° C., the saturated solution exists at the glass transition temperature.
As in the case of D-mannitol/PVP, cryomilling was used to prepare drug/polymer mixtures. […] As in the case of the D-mannitol/PVP, cryomilling facilitated the determination of dissolution endpoint.

[2] = type: physicochemical; conditions: 30% w/w in PVP, initially amorphous, yielded crystals
Method: To set up an aging experiment, the sample was added into an open DSC pan and heated up on a microscope hot-stage (Linkam THMS 600) to Tm+20° C. under vacuum. The application of vacuum removed air bubbles trapped in the viscous melt. The pan was then quenched to room temperature, sealed immediately, and aged in an oven of known temperature.
To verify the solubility of D-mannitol in PVP obtained with the DSC method (Method I), we used two other solubility-indicating methods (FIG. 7). In the first (Method II), D-mannitol was mixed with PVP at a concentration higher than predicted. The mixture was then aged to see whether the supersaturated solution indeed crystallized over time. We tracked three indicators of crystallization: (a) the glass transition temperature Tg of the mixture, which is expected to increase when D-mannitol is removed from its mixture with PVP (FIG. 5); (b) the appearance of new endotherms with aging which correspond to the dissolution of newly crystallized D-mannitol; and (c) new crystals observable by polarized light microscopy. Modulated DSC (MDSC) was used to measure Tg. In the second method (Method III), D-mannitol was mixed with PVP at high enough concentration so that D-mannitol rapidly crystallized. […]
For Method II, D-mannitol was mixed with PVP by cryogenic milling at 30% w/w. […] The mixture was analyzed by DSC at times ranging from a few days to 155 days. […]

OC[C@@H](O)[C@@H](O)[C@H](O)[C@H](O)CO [D-mannitol]
predicted solubility in PVP (Method I) ([1]; 105° C., temperature chosen for the validation tests): 15%
solubility in PVP ([1]; PVP K15, […]): 15 % w/w
solubility in PVP ([1]; PVP K15, at 95° C., […]): 10 % w/w
state of the 30% solution in PVP on aging [2]: supersaturated

Reference: patent US9004752B2, “Method for evaluating the solubility of a crystalline substance in a polymer” (Abbvie, Inc., priority 2008, dated 2015)
